As a reminder, the Ki is the dissociation constant of the complex between target and ligand, obtained from inhibition or displacement.

In the assay the target is Carbonic anhydrase 9 (Homo sapiens, UniProt Q16790). In words: Inhibition of human recombinant carbonic anhydrase-9-mediated CO2 hydration preincubated for 10 mins by stopped-flow assay.
For the molecule `NS(=O)(=O)c1cccc(N2S(=O)(=O)c3ccccc3S2(=O)=O)c1`, the Ki was determined as 32.2 nM.

Consider `NS(=O)(=O)c1ccc(CCN2S(=O)(=O)c3ccccc3S2(=O)=O)cc1`, for which the Ki was 86 nM.

With `NS(=O)(=O)c1ccc(N2S(=O)(=O)c3ccccc3S2(=O)=O)c(Cl)c1`, the Ki came to 17.1 nM.

`NS(=O)(=O)c1ccc(CN2S(=O)(=O)c3ccccc3S2(=O)=O)cc1`: the Ki was determined as 49.8 nM.

Take `NS(=O)(=O)c1ccc(N2S(=O)(=O)c3ccccc3S2(=O)=O)cc1`: the Ki amounted to 82.5 nM.

Take `NS(=O)(=O)c1ccccc1N1S(=O)(=O)c2ccccc2S1(=O)=O`: the Ki is 66.9 nM.
